Starred links: 1 amine or outer side, 2 acyl side, 3 side chain; linkers in the order of their positions; H or OH if unused. Positions of bridges follow the written chain, without caps; N, C: chain ends. Non-standard residues stand in square brackets, D forms with d. Residues, ends and D or L forms follow the SMILES beside them. X1 = O=C([C@]1(CC=[*:3])CCCN1[*:1])[*:2]; αAllylPro = C=CC[C@@]1(C(=O)O)CCCN1; Ala(cPr) = N[C@@H](CC1CC1)C(=O)O; S5 = C=CCCC[C@](C)(N)C(=O)O
Experiments:
[1] = design: PAMPA Pe: dose or concentration left out as unconfirmed; settings: for % Retention: PAMPA; for PAMPA Pe: 5 h, pH 7.4
in vitro = test: in vitro; design: dose or concentration left out as unconfirmed; settings: PAMPA
[2] = CHI Log D measurement (chromatographic hydrophobicity index); settings: pH 7.4
[3] = reverse-phase HPLC, Phenomenex Gemini C-18 column
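Throughout, for % Retention: Phospholipid-membrane PAMPA, donor and acceptor in DPBS pH 7.4 with 5% DMSO, 37 °C for 5 h, compound in each well quantified by reverse-phase HPLC-MS.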
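Throughout, for PAMPA Pe: Phospholipid-membrane PAMPA, donor and acceptor in DPBS pH 7.4 with 5% DMSO, 37 °C for 5 h, compound in each well quantified by reverse-phase HPLC-MS.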
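Throughout, for Papp: Phospholipid-membrane PAMPA, donor and acceptor in DPBS pH 7.4 with 5% DMSO, 37 °C for 5 h, compound in each well quantified by reverse-phase HPLC-MS.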

Row | % Retention [1] | Papp at 5 h (in vitro; pH 7.4, PAMPA Pe) | chromatographic logD [2] | PAMPA Pe [1] | Papp at 5 h (in vitro; pH 7.4, average effective permeability (Pe) of control on accepted PAMPA plates) | chromatographic logD [2, 3] | Compound
1 | 75 ± 1% | ≤ 0.1 ×10⁻⁶ cm/s | 2.4 |  |  |  | CNC(=O)[C@H](CC(=O)O)NC(=O)[C@H](CCC(N)=O)NC(=O)[C@H](CC(C)C)NC(=O)[C@H](CC(C)C)NC(=O)[C@H](Cc1ccc(O)cc1)NC(=O)[C@]1(C)CCCC=CCCC[C@](C)(NC(C)=O)C(=O)N[C@@H](C)C(=O)N[C@@H](CC2CC2)C(=O)N[C@@H](CC(C)C)C(=O)N1 [PLL7-7 variant 4, Ac-S5-Ala-Cpa-Leu-S5-Tyr-Leu-Leu-Gln-Asp-NHMe] (Ac-[S5]A[Ala(cPr)]L[S5]YLLQD-NHMe; staple 1-5)
2 | 103 ± 2% | 0.9 ± 0.2 ×10⁻⁶ cm/s | 2.6 |  |  |  | CNC(=O)[C@H](CC(N)=O)NC(=O)[C@H](CC(N)=O)NC(=O)[C@H](CC(C)C)NC(=O)[C@H](CC(C)C)NC(=O)[C@H](CC1CC1)NC(=O)[C@]1(C)CCCC=CC[C@]2(CCCN2C(C)=O)C(=O)N[C@@H](C)C(=O)N[C@@H](CC(C)C)C(=O)N1 (single isomer, unassigned) [PLL7-11, Ac-PL3-Ala-Leu-S5-Cpa-Leu-Leu-Asn-Asn-NHMe]
3 | 84 ± 2% | 0.4 ± 0.1 ×10⁻⁶ cm/s | 1.8 |  |  |  | CNC(=O)[C@H](CC(=O)O)NC(=O)[C@H](CCC(N)=O)NC(=O)[C@H](CC(C)C)NC(=O)[C@H](CC(C)C)NC(=O)[C@H](Cc1ccc(O)cc1)NC(=O)[C@]1(C)CCCC=CC[C@]2(CCCN2)C(=O)N[C@@H](CC2CC2)C(=O)N[C@@H](CC(C)C)C(=O)N1 (single isomer, unassigned) [PLL7-7 variant 1, H-PL3-Cpa-Leu-S5-Tyr-Leu-Leu-Gln-Asp-NHMe]
4 | 106 ± 2% | 0.3 ± 0.1 ×10⁻⁶ cm/s | 2.2 |  |  |  | CC(=O)N1CCC[C@]12CC=CCCC[C@@](C)(C(=O)N[C@@H](Cc1ccc(O)cc1)C(=O)N[C@@H](CC(C)C)C(=O)N[C@@H](CC(C)C)C(=O)N[C@@H](CC(=O)O)C(N)=O)NC(=O)[C@H](CC(C)C)NC(=O)[C@H](CC(C)C)NC2=O (single isomer, unassigned) [PLL4-10 variant 3, Ac-PL3-Leu-Leu-S5-Tyr-Leu-Leu-Asp-NH2]
5 | 73 ± 4% | ≤ 0.1 ×10⁻⁶ cm/s | 2.3 |  |  |  | C=CCCC[C@](C)(NC(=O)[C@H](CC(C)C)NC(=O)[C@H](CCCCN)NC(=O)[C@]1(CC=C)CCCN1C(C)=O)C(=O)N[C@@H](CC(N)=O)C(=O)N[C@@H](CC(C)C)C(=O)N[C@@H](CC(C)C)C(=O)N[C@H](C(=O)N[C@@H](Cc1ccc(O)cc1)C(=O)NC)[C@@H](C)O [PLL4-5 variant 5, Ac-PL3-Lys-Leu-S5-Asn-Leu-Leu-Thr-Tyr-NHMe] (Ac-[αAllylPro]KL[S5]NLLTY-NHMe)
6 |  | 8.6 ± 0.3 ×10⁻⁶ cm/s |  | 8.6 ± 0.3 (x10^−6) cm/sec | 7 to 11 ×10⁻⁶ cm/s |  | CC(=O)CC(c1ccccc1)c1c(O)c2ccccc2oc1=O (centres unmarked) [Warfarin, reference compound]
7 | 52 ± 8% | ≤ 0.1 ×10⁻⁶ cm/s | 1.5 |  |  |  | CNC(=O)[C@H](Cc1ccc(O)cc1)NC(=O)[C@@H](NC(=O)[C@H](CC(C)C)NC(=O)[C@H](CC(C)C)NC(=O)[C@H](CC(N)=O)NC(=O)[C@]1(C)CCCC=CC[C@]2(CCCN2)C(=O)N[C@@H](CCCCN)C(=O)N[C@@H](CC(C)C)C(=O)N1)[C@@H](C)O (single isomer, unassigned) [PLL4-5 variant 1, H-PL3-Lys-Leu-S5-Asn-Leu-Leu-Thr-Tyr-NHMe]
8 | 97 ± 1% | ≤ 0.1 ×10⁻⁶ cm/s |  |  |  | 3.2 | CNC(=O)[C@H](CCC(N)=O)NC(=O)[C@H](CC(C)C)NC(=O)[C@H](CC(C)C)NC(=O)[C@H](Cc1ccc(O)cc1)NC(=O)[C@]1(C)CCCC=CC[C@]2(CCCN2C(C)=O)C(=O)N[C@@H](CC(C)C)C(=O)N[C@@H](CC(C)C)C(=O)N1 [PLL5-12, Ac-PL3-Leu-Leu-S5-Tyr-Leu-Leu-Gln-NHMe] (Ac-[X1]LL[S5]YLLQ-NHMe; staple 1-4)
9 | 82 ± 2% | 0.3 ± 0.1 ×10⁻⁶ cm/s | 2.4 |  |  |  | CNC(=O)[C@H](CC(=O)O)NC(=O)[C@H](Cc1c[nH]cn1)NC(=O)[C@H](CC(C)C)NC(=O)[C@H](CC(C)C)NC(=O)[C@H](CCCNC(=N)N)NC(=O)[C@]1(C)CCCC=CC[C@]2(CCCN2C(C)=O)C(=O)O[C@@H](CC(C)C)C(=O)N[C@@H](CC(C)C)C(=O)N1 (single isomer, unassigned) [PLL7-9 variant 2, Ac-PL3-Lec-Leu-S5-Arg-Leu-Leu-His-Asp-NHMe]
10 | 69 ± 2% | 0.4 ± 0.1 ×10⁻⁶ cm/s | 1.4 |  |  |  | CNC(=O)[C@H](CC(=O)O)NC(=O)[C@H](CC(=O)O)NC(=O)[C@H](CC(C)C)NC(=O)[C@H](CC(C)C)NC(=O)[C@H](Cc1ccc(O)cc1)NC(=O)[C@]1(C)CCCC=CC[C@]2(CCCN2)C(=O)N[C@@H](CC(C)C)C(=O)N[C@@H](CC(C)C)C(=O)N1 (single isomer, unassigned) [PLL5-2 variant 1, H-PL3-Leu-Leu-S5-Tyr-Leu-Leu-Asp-Asp-NHMe]
11 | 66 ± 2% | 0.3 ± 0.1 ×10⁻⁶ cm/s | 2.2 |  |  |  | CNC(=O)[C@H](CC(=O)O)NC(=O)[C@H](CC(C)C)NC(=O)[C@H](CC(C)C)NC(=O)[C@H](Cc1ccc(O)cc1)NC(=O)[C@]1(C)CCCC=CC[C@]2(CCCN2)C(=O)N[C@@H](CC(C)C)C(=O)N[C@@H](CC(C)C)C(=O)N1 (single isomer, unassigned) [PLL4-10 variant 1, H-PL3-Leu-Leu-S5-Tyr-Leu-Leu-Asp-NHMe]
12 | 75 ± 1% | 0.5 ± 0.1 ×10⁻⁶ cm/s | 1.8 |  |  |  | CC(=O)N1CCC[C@]12CC=CCCC[C@@](C)(C(=O)N[C@@H](Cc1ccc(O)cc1)C(=O)N[C@@H](CC(C)C)C(=O)N[C@@H](CC(C)C)C(=O)N[C@@H](CCC(N)=O)C(=O)N[C@@H](CC(=O)O)C(N)=O)NC(=O)[C@H](CC(C)C)NC(=O)[C@H](CC1CC1)NC2=O (single isomer, unassigned) [PLL7-7 variant 3, Ac-PL3-Cpa-Leu-S5-Tyr-Leu-Leu-Gln-Asp-NH2]
13 | 83 ± 1% | ≤ 0.1 ×10⁻⁶ cm/s |  |  |  | 3.5 | CNC(=O)[C@H](Cc1ccc(O)cc1)NC(=O)[C@H](CCC(N)=O)NC(=O)[C@H](CC(C)C)NC(=O)[C@H](CC(C)C)NC(=O)[C@H](Cc1ccc(O)cc1)NC(=O)[C@]1(C)CCCC=CC[C@]2(CCCN2C(C)=O)C(=O)N[C@@H](CC(C)C)C(=O)N[C@@H](CC(C)C)C(=O)N1 [PLL5-3, Ac-PL3-Leu-Leu-S5-Tyr-Leu-Leu-Gln-Tyr-NHMe] (Ac-[X1]LL[S5]YLLQY-NHMe; staple 1-4)
14 | 84 ± 2% | 0.3 ± 0.1 ×10⁻⁶ cm/s | 2.3 |  |  |  | C=CCCC[C@](C)(NC(=O)[C@H](CC(C)C)NC(=O)[C@H](CC1CC1)NC(=O)[C@]1(CC=C)CCCN1C(C)=O)C(=O)N[C@@H](Cc1ccc(O)cc1)C(=O)N[C@@H](CC(C)C)C(=O)N[C@@H](CC(C)C)C(=O)N[C@@H](CCC(N)=O)C(=O)N[C@@H](CC(=O)O)C(=O)NC [PLL7-7 variant 5, Ac-PL3-Cpa-Leu-S5-Tyr-Leu-Leu-Gln-Asp-NHMe] (Ac-[αAllylPro][Ala(cPr)]L[S5]YLLQD-NHMe)
15 | 92 ± 10% |  |  | ≤0.1 (×10^−6) cm/sec |  |  | Ac-PL3-Lec-Leu-S5-Tyr-Leu-Leu-Asp-NHMe [PLL4-10 variant 2]

From patent publication US20230357320A1, “HELICAL STAPLED PEPTIDES AND USES THEREOF” (FOG PHARMACEUTICALS, INC., priority 2020, published 2023)
